Measured values from ChEMBL document CHEMBL6153040, “Discovery of the salicylaldehyde-based compound DDO-02267 as a lysine-targeting covalent inhibitor of ALKBH5” (Eur J Med Chem, 2025).
The source made the active and inactive calls. No cut-off for these calls is given here.

Tests used:
RNA demethylase ALKBH5 [1] = biological target: T1, RNA demethylase ALKBH5 (Homo sapiens, UniProt Q6P6C2); assay: Inhibition of ALKBH5 (66 to 292 residues) (unknown origin) extracted from Escherichia coli BL21 (DE3) cells using m6A ssDNA as substrate measured after 6 hrs by fluorescence polarization assay
Target sequence in this assay (Q6P6C2 whole entry, the tested form may be a part): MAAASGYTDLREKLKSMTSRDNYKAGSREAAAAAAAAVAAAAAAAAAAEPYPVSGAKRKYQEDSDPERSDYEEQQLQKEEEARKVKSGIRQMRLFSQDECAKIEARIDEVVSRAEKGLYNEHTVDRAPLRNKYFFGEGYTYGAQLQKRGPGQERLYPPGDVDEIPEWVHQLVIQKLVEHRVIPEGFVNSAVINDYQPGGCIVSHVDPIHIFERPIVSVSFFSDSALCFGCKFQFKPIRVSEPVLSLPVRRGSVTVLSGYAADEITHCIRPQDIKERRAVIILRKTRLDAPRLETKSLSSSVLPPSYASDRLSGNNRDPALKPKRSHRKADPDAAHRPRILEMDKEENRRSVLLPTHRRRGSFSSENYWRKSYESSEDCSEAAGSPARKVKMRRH

RNA demethylase ALKBH5 [2] = biological target: T1, RNA demethylase ALKBH5; assay: Inhibition of ALKBH5 (66 to 292 residues) (unknown origin) extracted from Escherichia coli BL21 (DE3) cells using m6A ssDNA as substrate measured after 2 hrs by fluorescence polarization assay
Target sequence in this assay (Q6P6C2 whole entry, the tested form may be a part): as above

RNA demethylase ALKBH5 [3] = biological target: T1, RNA demethylase ALKBH5; assay: Inhibition of ALKBH5 (66 to 292 residues) (unknown origin) demethylase activity extracted from Escherichia coli BL21 (DE3) cells at 200 uM preincubated for 3 hrs and measured after compound washout by small molecule dilution method
Target sequence in this assay (Q6P6C2 2-394 limits assumed): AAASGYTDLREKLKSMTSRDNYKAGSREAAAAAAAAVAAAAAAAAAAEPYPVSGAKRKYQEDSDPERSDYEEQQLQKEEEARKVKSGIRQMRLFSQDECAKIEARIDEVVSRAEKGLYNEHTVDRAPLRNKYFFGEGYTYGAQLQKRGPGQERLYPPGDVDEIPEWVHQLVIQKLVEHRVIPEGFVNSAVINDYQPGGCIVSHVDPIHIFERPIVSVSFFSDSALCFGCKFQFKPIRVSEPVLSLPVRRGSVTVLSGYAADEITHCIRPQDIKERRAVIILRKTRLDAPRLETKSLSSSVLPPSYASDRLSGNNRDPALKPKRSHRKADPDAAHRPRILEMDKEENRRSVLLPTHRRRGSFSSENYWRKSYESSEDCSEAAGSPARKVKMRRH

RNA demethylase ALKBH5 [4] = biological target: T1, RNA demethylase ALKBH5; assay: Covalent binding affinity to ALKBH5 (66 to 292 residues) (unknown origin) extracted from Escherichia coli BL21 (DE3) cells at Lys132 residue by HPLC-MS/MS analysis
Target sequence in this assay (Q6P6C2 2-394 limits assumed): as above

[5] = test system: RNA demethylase ALKBH5 (Homo sapiens), Q6P6C2 [K132E]; assay: Inhibition of ALKBH5 K132E mutant (66 to 292 residues) (unknown origin) extracted from Escherichia coli BL21 (DE3) cells using m6A ssDNA as substrate at 0.5 to 100 uM incubated for 2 hrs by restriction enzyme digestion assay; conditions: dose 0.5-100 µM
Sequence of RNA demethylase ALKBH5 (Homo sapiens), Q6P6C2 [K132E] (Q6P6C2 whole entry K132E, the tested form may be a part): as the sequence (Q6P6C2 whole entry, the tested form may be a part) above, with K132E counted along it

RNA demethylase ALKBH5 [6] = biological target: T1, RNA demethylase ALKBH5; assay: Inhibition of ALKBH5 (66 to 292 residues) (unknown origin) extracted from Escherichia coli BL21 (DE3) cells using m6A ssDNA as substrate measured after 300 mins by fluorescence polarization assay
Target sequence in this assay (Q6P6C2 whole entry, the tested form may be a part): as the sequence (Q6P6C2 whole entry, the tested form may be a part) above

RNA demethylase ALKBH5 [7] = biological target: T1, RNA demethylase ALKBH5; assay: Inhibition of ALKBH5 (66 to 292 residues) (unknown origin) extracted from Escherichia coli BL21 (DE3) cells using m6A ssDNA as substrate assessed as inactivation constant (Ki) measured after 6 hrs by fluorescence polarization assay
Target sequence in this assay (Q6P6C2 whole entry, the tested form may be a part): as above

[8] = biological target: T2, Alpha-ketoglutarate-dependent dioxygenase FTO (Homo sapiens, UniProt Q9C0B1); assay: Inhibition of FTO (32 to 505 residues) (unknown origin) extracted from Escherichia coli BL21 (DE3) cells by fluorescence polarization assay
Target sequence in this assay (Q9C0B1 whole entry, the tested form may be a part): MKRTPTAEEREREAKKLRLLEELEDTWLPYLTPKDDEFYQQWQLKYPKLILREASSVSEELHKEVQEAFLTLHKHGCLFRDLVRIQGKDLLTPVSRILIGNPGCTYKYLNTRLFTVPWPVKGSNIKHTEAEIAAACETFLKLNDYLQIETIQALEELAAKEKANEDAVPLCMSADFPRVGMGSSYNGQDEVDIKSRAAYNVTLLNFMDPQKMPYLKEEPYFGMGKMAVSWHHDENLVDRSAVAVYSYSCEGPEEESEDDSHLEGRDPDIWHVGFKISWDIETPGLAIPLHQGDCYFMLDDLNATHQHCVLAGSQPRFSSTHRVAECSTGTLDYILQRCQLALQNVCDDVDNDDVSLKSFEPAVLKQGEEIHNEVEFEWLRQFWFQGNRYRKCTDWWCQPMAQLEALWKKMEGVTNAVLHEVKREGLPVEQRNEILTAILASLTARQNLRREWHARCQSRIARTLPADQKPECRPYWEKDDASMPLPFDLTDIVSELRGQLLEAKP

[9] = Selectivity ratio of IC50 for ALKBH3 (unknown origin) to IC50 for ALKBH5 (66 to 292 residues) (unknown origin) extracted from Escherichia coli BL21 (DE3) cells by fluorescence polarization assay
[10] = Selectivity ratio of IC50 for FTO (32 to 505 residues) (unknown origin) extracted from Escherichia coli BL21 (DE3) cells to IC50 for ALKBH5 (66 to 292 residues) (unknown origin) extracted from Escherichia coli BL21 (DE3) cells by fluorescence polarization assay
[11] = Selectivity ratio of IC50 for FTO (32 to 505 residues) (unknown origin) extracted from Escherichia coli BL21 (DE3) cells to IC50 for ALKBH5 (66 to 292 residues) (unknown origin) extracted from Escherichia coli BL21 (DE3) cells by restriction enzyme digestion assay
[12] = Selectivity ratio of IC50 for ALKBH3 (unknown origin) to IC50 for ALKBH5 (66 to 292 residues) (unknown origin) extracted from Escherichia coli BL21 (DE3) cells by restriction enzyme digestion assay
[13] = biological target: T3, Alpha-ketoglutarate-dependent dioxygenase alkB homolog 3 (Homo sapiens, UniProt Q96Q83); assay: Inhibition of ALKBH3 (unknown origin) by restriction enzyme digestion method
T3 sequence (Q96Q83 whole entry): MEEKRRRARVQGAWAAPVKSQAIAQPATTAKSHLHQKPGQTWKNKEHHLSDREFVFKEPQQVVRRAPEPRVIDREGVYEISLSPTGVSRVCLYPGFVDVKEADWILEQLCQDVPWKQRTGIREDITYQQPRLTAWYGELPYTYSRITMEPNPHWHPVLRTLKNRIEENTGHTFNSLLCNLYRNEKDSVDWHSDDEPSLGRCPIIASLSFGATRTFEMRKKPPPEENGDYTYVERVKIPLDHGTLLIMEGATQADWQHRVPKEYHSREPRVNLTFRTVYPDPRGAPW

[14] = biological target: T2, Alpha-ketoglutarate-dependent dioxygenase FTO; assay: Inhibition of FTO (32 to 505 residues) (unknown origin) extracted from Escherichia coli BL21 (DE3) cells using m6A ssDNA as substrate incubated for 2 hrs by TBE-PAGE based restriction enzyme digestion assay
Target sequence in this assay (Q9C0B1 whole entry, the tested form may be a part): as the sequence (Q9C0B1 whole entry, the tested form may be a part) above

RNA demethylase ALKBH5 [15] = biological target: T1, RNA demethylase ALKBH5; assay: Inhibition of ALKBH5 in human MV4-11 cells assessed as increase in m6A methylation levels by m6A RNA Methylation Quantification Kit based colorimetric analysis; format: cell-based; conditions: dose 10-80 µM
Target sequence in this assay (Q6P6C2 2-394 limits assumed): as the sequence (Q6P6C2 2-394 limits assumed) above

MOLM-13 [16] = assay: Induction of cell cycle arrest in human MOLM-13 cells assessed as accumulation of cells at G0/G1 phase at 40 uM incubated for 72 hrs by flow cytometry analysis (reference value: 65.53 %); format: functional
MOLM-13 [17] = assay: Induction of apoptosis in human MOLM-13 cells assessed as early apoptotic cells at 40 uM incubated for 72 hrs by Annexin V FITC/PI staining based flow cytometry analysis (reference value: 4.32%); format: functional
MOLM-13 [18] = assay: Induction of apoptosis in human MOLM-13 cells assessed as necrotic cells at 40 uM incubated for 72 hrs by Annexin V FITC/PI staining based flow cytometry analysis (reference value: 1.75 %); format: functional
MOLM-13 [19] = assay: Induction of apoptosis in human MOLM-13 cells assessed as viable cells at 80 uM incubated for 72 hrs by Annexin V FITC/PI staining based flow cytometry analysis (reference value: 89.65%); format: functional; conditions: read-out: Activity
MOLM-13 [20] = assay: Induction of apoptosis in human MOLM-13 cells assessed as late apoptotic cells at 80 uM incubated for 72 hrs by Annexin V FITC/PI staining based flow cytometry analysis (reference value: 4.28 %); format: functional
MOLM-13 [21] = assay: Induction of apoptosis in human MOLM-13 cells assessed as necrotic cells at 80 uM incubated for 72 hrs by Annexin V FITC/PI staining based flow cytometry analysis (reference value: 1.75 %); format: functional
RNA demethylase ALKBH5 [22] = biological target: T1, RNA demethylase ALKBH5; assay: Potency index, ratio of 2-(((2-nitrophenyl)sulfonyl)carbamoyl)isonicotinic acid IC50 to test compound IC50 for inhibition of ALKBH5 (66 to 292 residues) (unknown origin) extracted from Escherichia coli BL21 (DE3) cells using m6A ssDNA as substrate measured after 1 hrs by fluorescence polarization assay
Target sequence in this assay (Q6P6C2 2-394 limits assumed): as above

RNA demethylase ALKBH5 [23] = biological target: T1, RNA demethylase ALKBH5; assay: Inhibition of ALKBH5 (66 to 292 residues) (unknown origin) extracted from Escherichia coli BL21 (DE3) cells using m6A ssDNA as substrate at 5 uM incubated for 2 hrs by TBE-PAGE based restriction enzyme digestion assay
Target sequence in this assay (Q6P6C2 2-394 limits assumed): as above

[24] = test system: RNA demethylase ALKBH5 (Homo sapiens), Q6P6C2 [K132E]; assay: Induction of thermal stabilization of ALKBH5 K132E mutant (66 to 292 residues) (unknown origin) extracted from Escherichia coli BL21 (DE3) cells assessed as change in melting temperature by thermal shift assay
[25] = biological target: T2, Alpha-ketoglutarate-dependent dioxygenase FTO; assay: Induction of thermal stabilization of FTO (32 to 505 residues) (unknown origin) extracted from Escherichia coli BL21 (DE3) cells assessed as change in melting temperature by thermal shift assay
Target sequence in this assay (Q9C0B1 whole entry, looked up, the tested form may be a part): as the sequence (Q9C0B1 whole entry, the tested form may be a part) above

O=Cc1cc(S(=O)(=O)NC(=O)c2cc(C(=O)O)ccn2)c2ccccc2c1O
IC50 (RNA demethylase ALKBH5 [1]): 0.17 µM | IC50 (RNA demethylase ALKBH5 [2]): 0.35 µM | inhibition (RNA demethylase ALKBH5 [3]): Active | Activity (RNA demethylase ALKBH5 [4]): Active | inhibition [5]: inactive | IC50 (RNA demethylase ALKBH5 [6]): 0.2 µM | Ki (RNA demethylase ALKBH5 [7]): 0.41 µM | IC50 [8]: 14.2 µM | Ratio IC50 [9]: 20 | Ratio IC50 [10]: 20 | Ratio IC50 [11]: 10 | Ratio IC50 [12]: 30 | IC50 [13]: 75.4 µM | IC50 [14]: 19.7 µM | inhibition (RNA demethylase ALKBH5 [15]): Dose-dependent-effect | Activity (MOLM-13 [16]): 68.23% | Activity (MOLM-13 [17]): 10.4% | Activity (MOLM-13 [18]): 2.03% | viability at 80 µM (MOLM-13 [19]): 77.6% | Activity (MOLM-13 [20]): 12% | Activity (MOLM-13 [21]): 1.2% | Ratio IC50 (RNA demethylase ALKBH5 [22]): 287 | inhibition (RNA demethylase ALKBH5 [23]): Active | ΔTm [24]: < 1 °C | ΔTm [25]: < 1 °C
